{"source": "patent US9283277B2", "about": "“Methods and compositions for the treatment of obesity” (Children's Medical Center Corporation, priority 2008, dated 2016)", "key": {"[1]": {"test_system": "LepRB signaling (LepRB, Jak2, Stat3)", "assay": "Leptin receptor signaling in LepRB-expressing 293 cells under tunicamycin-induced ER stress", "type": "cell-based, Human", "conditions": "then leptin 100 ng/ml 45 minutes", "source_text": "The leptin receptor belongs to the interleukin 6 (IL-6) receptor family of class I cytokine receptors^30. […] Binding of leptin to LepRb initiates a conformational change that leads to trans-autophosphorylation and activation of LepRb-associated Jak2^31,32 Activated Jak2 then phosphorylates the tyrosine residues within the LepRb/Jak2 complex to mediate downstream signaling. […] To examine whether UPR might alter the leptin signaling, LepRB-expressing 293 cells were first exposed to tunicamycin (3 μg/ml) to activate ER stress for a period of 4 hours and then treated with leptin (100 ng/ml) for 45 minutes. […] Finally, as a downstream element, leptin-stimulated Stat3 activation was analyzed."}, "[2]": {"test_system": "hypothalamus of lean mice", "assay": "Tunicamycin infusion to the third ventricle of lean mice", "type": "in vivo", "source_text": "Having shown that ER stress is increased in the hypothalamus of HFD-fed mice and causes leptin resistance in the cellular systems, we sought to investigate whether leptin action could also be blocked by directly inducing ER stress in brains of lean mice.\nNext, we investigated the expression patterns of leptin resistance markers such as neuropeptide Y (NPY) and agouti related peptide (AgRP) in the vehicle- and tunicamycin-infused mice. […] In addition, to exclude the possibility that tunicamycin infusion leads to a decay in mRNA degradation of NPY and AgRP due to a possible toxic effect, we analyzed mRNA levels of IR and insulin receptor substrate 1 (IRS1).\nTo assess whether increased ER stress and activation of UPR signaling would create leptin resistance and block the leptin-stimulated Stat3 activation in the hypothalamus, leptin (1 mg/kg/day) was intraperitoneally administered 5½ hours after tunicamycin infusion. The experiment was ended by dissection of the hypothalami 30 minutes after leptin administration. […] In contrast, administration of tunicamycin to the third ventricle and creation of ER stress, in complete accordance with our data obtained from 293 cells, blocked activation of Stat3 in the hypothalamus (data not shown)."}, "[3]": {"test_system": "LepRB signaling (LepRB, Jak2, Stat3)", "assay": "Tunicamycin dose curve and time course in Ad-LacZ, Ad-XBP1s or Ad-ATF6n infected LepRb-expressing 293 cells", "type": "cell-based, Human", "source_text": "To determine whether exogenous expression of XBP1s and a consequent increase in ER folding capacity would enhance leptin receptor signaling, we generated an XBP1s-encoding adenovirus (Ad-XBP1s) and also a LacZ-expressing adenovirus (Ad-LacZ) as a control. Infection of mouse embryonic fibroblasts (MEFs) with Ad-XBP1s increased the protein level of XBP1s (data not shown). To test whether the expressed XBP1s was functional, we co-infected cells with Ad-XBP1s and a luciferase reporter gene-driven by an ERSE. […] ERDJ4 is a chaperone and involved in folding of ER proteins. […] After showing that Ad-XBP1s is functional and can increase ER folding capacity, we subsequently overexpressed the XBP1s in the LepRb-expressing 293 cells and performed two sets of experiments. In the first, we asked whether XBP1s overexpression could enhance the leptin-stimulated tyrosine phosphorylation of LepRb and increase the ability of the cells withstand to the ER stress-mediated blockade of LepRb activation. For this purpose we stimulated the 293 cells with increasing doses of tunicamycin (0.001, 0.01, 0.05, 0.1 and 1 μg/ml) for 5 hours and analyzed leptin-stimulated LepRb activation. In Ad-LacZ infected cells, LepRb activation was blocked at tunicamycin doses of 0.01 μg/ml and higher (data not shown). […]"}, "[4]": {"test_system": "LepRB", "assay": "LepRB membrane translocation (immunofluorescence) and leptin-binding assay in 293 cells", "type": "cell-based, Human", "protocol": "Considering the fact that LepRB is folded in the ER, we investigated whether ER stress blocks leptin receptor translocation to the membrane from the ER and whether this could be a reason for the blockade of leptin signaling. We stimulated the 293 cells with tunicamycin for five hours (3 μg/ml) and analyzed leptin receptor levels in the plasma membrane by immunofluoresence staining. It was observed that LepRB folding is still preserved and its translocation to the membrane is not decreased in ER stress conditions. Next, we performed leptin-binding assays in DMSO and tunicamycin-treated cells to exclude the possibility of a defect in binding of leptin to LepRB."}, "[5]": {"test_system": "insulin receptor (IR)", "assay": "Insulin receptor activation in LepRB-expressing 293 cells after tunicamycin", "type": "cell-based, Human", "conditions": "tunicamycin 3 μg/ml five hours, insulin 100 nM five minutes", "protocol": "To exclude the possibility that LepRB-expressing 293 cells become dysfunctional due to a possible toxicity generated by tunicamycin, we investigated the insulin receptor (IR) activation by stimulating the cells with insulin (100 nM) for five minutes after five-hour tunicamycin (3 μg/ml) treatment."}, "[6]": {"conditions": "tunicamycin 3 μg/ml (or DMSO) 4 hours"}}}
{"substance": "tunicamycin", "values": [{"measurement": "leptin-stimulated Jak2 tyrosine phosphorylation", "setting": "[1]; tunicamycin 3 μg/ml 4 hours", "value": "reduced to an undetectable level"}, {"measurement": "leptin-induced Stat3 phosphorylation (Tyr705)", "setting": "[1]; [6]", "value": "totally abolished"}, {"measurement": "leptin-stimulated LepRB tyrosine phosphorylation", "setting": "[1]; [6]", "value": "completely inhibited"}, {"measurement": "Stat3 phosphorylation (activation) in the hypothalamus", "setting": "[2]; leptin 1 mg/kg IP 5½ hours after third ventricle tunicamycin or vehicle infusion, 30 minutes after leptin", "value": "blocked"}, {"measurement": "POMC mRNA levels in hypothalamus", "setting": "[2]; third ventricle infusion", "value": "did not show any significant difference"}, {"measurement": "acute food intake", "setting": "[2]; third ventricle infusion", "value": "significantly increased"}, {"measurement": "hypothalamic mRNA levels of IR and IRS1", "setting": "[2]; third ventricle infusion", "value": "does not lead to a change"}, {"measurement": "mRNA levels of NPY and AgRP in hypothalamus", "setting": "[2]; third ventricle infusion", "value": "significant increase"}, {"measurement": "mRNA levels of ER stress-responsive genes (XBP1s, CHOP, ERDJ4) in hypothalamus", "setting": "[2]; third ventricle infusion, twelve hours after infusion", "value": "significantly upregulated"}, {"measurement": "time until leptin-stimulated LepRb, Jak2 activation and Stat3 tyrosine phosphorylation are blocked", "setting": "[3]; Ad-LacZ infected 293 cells, tunicamycin 0.05 μg/ml", "value": "≤ 2", "unit": "h"}, {"measurement": "CHOP mRNA expression", "setting": "[3]; tunicamycin 0.01 and 0.05 μg/ml, five hours", "value": "upregulates"}, {"measurement": "LepRB translocation to the plasma membrane", "setting": "[4]; 293 cells, tunicamycin 3 μg/ml five hours, immunofluorescence", "value": "not decreased"}, {"measurement": "leptin binding to LepRB", "setting": "[4]; tunicamycin-treated vs DMSO-treated cells", "value": "significantly increased"}, {"measurement": "insulin-stimulated IR tyrosine phosphorylation", "setting": "[5]", "value": "did not change"}]}
